± gives the standard deviation. One block for each compound: values may come before it.
Tests used:
[1] = chemical recovery from spiked human plasma; higher = better extraction; details: pooled human plasma
[2] = chemical recovery into PDMS from spiked human plasma; higher = better extraction; details: pooled human plasma, extraction method: PES with PDMS
[3] = chemical recovery by SPE of plasma after PDMS sampling; higher = better extraction; details: pooled human plasma, extraction method: HLB SPE of plasma after PES
[4] = extraction method: PES+SPE (3 d PDMS equilibration then HLB SPE)
[5] = extraction method: SPE only (HLB 96-well)
[6] = extraction method: SPE only (HLB 96-well), PES comparison experiment
[7] = extraction method: solvent precipitation (ACN + hexane)
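Wherever chemical recovery by SPE of plasma after PDMS sampling is given: over 400 spiked chemicals quantified by LC-HRMS or GC-HRMS via internal standard calibration, recovery relative to spike mix added to unspiked plasma extract to correct matrix effects.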

chemical recovery [1, 5]: 48.2 ± 5.2% | chemical recovery [1, 6]: 47.4 ± 4.1% | chemical recovery [1, 7]: 81 ± 4.5% | chemical recovery by SPE of plasma ([3]; equilibration time (d): 1): 54.5 ± 12% | chemical recovery by SPE of plasma ([3]; equilibration time (d): 3): 57.9 ± 5% | chemical recovery by SPE of plasma ([3]; equilibration time (d): 6): 54.7 ± 7.3%
Compound: Cc1cccc(C)c1N(Cn1cccn1)C(=O)C[S+]([O-])CC(=O)O (stereo not given) [Metazachlor BH 479-9]

chemical recovery [1, 5]: 97.9 ± 4.8% | chemical recovery by SPE of plasma ([3]; equilibration time (d): 1): 44.3 ± 5.8% | chemical recovery by SPE of plasma ([3]; equilibration time (d): 3): 50.6 ± 2.1% | chemical recovery by SPE of plasma ([3]; equilibration time (d): 6): 43.4 ± 3%
Compound: Cc1cccc(C)c1N(Cn1cccn1)C(=O)CS(=O)(=O)O [Metazachlor ESA]

chemical recovery [1, 4]: 0.467 ± 0.11% | chemical recovery [1, 5]: 0.483 ± 0.27% | chemical recovery [1, 6]: 0.192 ± 0.098% | chemical recovery [1, 7]: 44.8 ± 6.5% | chemical recovery by SPE of plasma ([3]; equilibration time (d): 1): 0.224 ± 0.23% | chemical recovery by SPE of plasma ([3]; equilibration time (d): 3): 0.612 ± 0.32% | chemical recovery by SPE of plasma ([3]; equilibration time (d): 6): 0.886 ± 0.81%
Compound: Cn1ccnc1S [Methimazol]

chemical recovery [1, 6]: 41 ± 6% | chemical recovery by SPE of plasma ([3]; equilibration time (d): 3): 54.2 ± 4.1% | chemical recovery by SPE of plasma ([3]; equilibration time (d): 6): 47.4 ± 3%
Compound: CCc1cccc(C)c1N(C(=O)C(=O)O)C(C)C(=O)O (stereo not given) [Metolachlor CGA 357-704]

chemical recovery [1, 6]: 47.9 ± 5.2% | chemical recovery by SPE of plasma ([3]; equilibration time (d): 1): 37.9 ± 8.1% | chemical recovery by SPE of plasma ([3]; equilibration time (d): 3): 46.1 ± 2.7% | chemical recovery by SPE of plasma ([3]; equilibration time (d): 6): 43.1 ± 7.2%
Compound: CCc1cccc(C)c1NC(=O)CS(=O)(=O)O [Metolachlor CGA 368-208]

chemical recovery [1, 4]: 0.65 ± 0.11% | chemical recovery [1, 5]: 33.2 ± 2.9% | chemical recovery [1, 6]: 46.9 ± 4% | chemical recovery [1, 7]: 69.1 ± 3.4% | chemical recovery by SPE of plasma ([3]; equilibration time (d): 1): 38.9 ± 5.3% | chemical recovery by SPE of plasma ([3]; equilibration time (d): 3): 42.9 ± 5.7% | chemical recovery by SPE of plasma ([3]; equilibration time (d): 6): 39.7 ± 6.8%
Compound: CCc1cccc(C)c1N(C(=O)CS(=O)(=O)O)C(C)COC (stereo not given) [Metolachlor ESA]

chemical recovery [1, 4]: 44.01 ± 0.38% | chemical recovery [1, 5]: 45.5 ± 3.8% | chemical recovery [1, 6]: 53.5 ± 4.5% | chemical recovery [1, 7]: 70.9 ± 5.3% | chemical recovery by SPE of plasma ([3]; equilibration time (d): 1): 48.6 ± 4.3% | chemical recovery by SPE of plasma ([3]; equilibration time (d): 3): 53 ± 2.7% | chemical recovery by SPE of plasma ([3]; equilibration time (d): 6): 46.3 ± 2%
Compound: COc1c(C)c2c(c(O)c1C/C=C(\C)CCC(=O)O)C(=O)OC2 [Mycophenolic acid]

chemical recovery [1, 5]: 55.1 ± 13% | chemical recovery [1, 6]: 43.2 ± 7.2% | chemical recovery by SPE of plasma ([3]; equilibration time (d): 1): 23.5 ± 3.5% | chemical recovery by SPE of plasma ([3]; equilibration time (d): 3): 17.7 ± 3% | chemical recovery by SPE of plasma ([3]; equilibration time (d): 6): 9.46 ± 8.3%
Compound: CCCCCCCCCCCC[N+](C)(C)[O-] [N,N-Dimethyldodecylamine N-oxide]

chemical recovery [1, 6]: 58.9 ± 4.9% | chemical recovery by SPE of plasma ([3]; equilibration time (d): 1): 56.2 ± 8.4% | chemical recovery by SPE of plasma ([3]; equilibration time (d): 3): 61.6 ± 4.1% | chemical recovery by SPE of plasma ([3]; equilibration time (d): 6): 55.1 ± 4.2%
Compound: CC(=O)Nc1ccc(O)c(C(=O)O)c1 [N-Acetyl mesalazine]

chemical recovery [1, 4]: 45.4 ± 6.6% | chemical recovery [1, 5]: 48.7 ± 6.1% | chemical recovery by SPE of plasma ([3]; equilibration time (d): 1): 11.4 ± 0.85% | chemical recovery by SPE of plasma ([3]; equilibration time (d): 3): 17.5 ± 1.5% | chemical recovery by SPE of plasma ([3]; equilibration time (d): 6): 11.5 ± 1.4%
Compound: CCCCNS(=O)(=O)c1ccccc1 [N-Butylbenzenesulfonamide]

chemical recovery [1, 6]: 44.7 ± 7.9% | chemical recovery [1, 7]: 62.7 ± 5.7% | chemical recovery by SPE of plasma ([3]; equilibration time (d): 1): 0.209 ± 0.36%
Compound: CCCCCCCCCCCCNC [N-Methyldodecylamine]

chemical recovery [1, 4]: 66 ± 2.3% | chemical recovery [1, 5]: 63.8 ± 1.9% | chemical recovery [1, 6]: 73.3 ± 9.3% | chemical recovery [1, 7]: 70.2 ± 4.7% | chemical recovery by SPE of plasma ([3]; equilibration time (d): 3): 36.6 ± 5.5% | chemical recovery by SPE of plasma ([3]; equilibration time (d): 6): 36.5 ± 9.1%
Compound: COc1ccc2cc(C(C)C(=O)O)ccc2c1 (stereo not given) [Naproxen]

chemical recovery [1, 7]: 17 ± 2.7% | chemical recovery by SPE of plasma ([3]; equilibration time (d): 3): 1.02 ± 0.27%
Compound: Oc1nc(O)c2cn[nH]c2n1 [Oxypurinol]

chemical recovery [1, 4]: 26.4 ± 3.3% | chemical recovery [1, 5]: 23.3 ± 2.6% | chemical recovery [1, 6]: 41.2 ± 3.3% | chemical recovery [1, 7]: 73 ± 7.5% | chemical recovery by SPE of plasma ([3]; equilibration time (d): 1): 24.1 ± 6% | chemical recovery by SPE of plasma ([3]; equilibration time (d): 3): 23.9 ± 1.9% | chemical recovery by SPE of plasma ([3]; equilibration time (d): 6): 23.3 ± 8.1%
Compound: O=C(O)C(F)(F)C(F)(F)C(F)(F)F [Perfluorobutanoic acid]

chemical recovery [1, 5]: 8.44 ± 0.76% | chemical recovery [1, 6]: 20.8 ± 2.2% | chemical recovery by SPE of plasma ([3]; equilibration time (d): 1): 2.82 ± 2.2% | chemical recovery by SPE of plasma ([3]; equilibration time (d): 3): 2.33 ± 0.82% | chemical recovery by SPE of plasma ([3]; equilibration time (d): 6): 3.01 ± 1.1%
Compound: c1ccc2c(c1)ccc1ccccc12 [Phenanthrene]

Second part, the compound before the results:

Compound: Nc1ccccc1-c1ccccc1 [2-Aminobiphenyl]
chemical recovery [1, 4]: 17.3 ± 3.9% | chemical recovery [1, 5]: 22.6 ± 0.6% | chemical recovery [1, 6]: 27.7 ± 4.4% | chemical recovery [1, 7]: 2.86 ± 5% | chemical recovery into PDMS ([2]; equilibration time (d): 1): 14.2 ± 6.8% | chemical recovery into PDMS ([2]; equilibration time (d): 3): 14 ± 7.3%

Compound: CC(C)c1ccc2sc3ccccc3c(=O)c2c1 [2-Isopropylthioxanthone]
chemical recovery [1, 5]: 33.5 ± 9.6% | chemical recovery [1, 6]: 19.8 ± 4.6% | chemical recovery into PDMS ([2]; equilibration time (d): 1): 45.3 ± 4.8% | chemical recovery into PDMS ([2]; equilibration time (d): 3): 48.5 ± 4.6% | chemical recovery into PDMS ([2]; equilibration time (d): 6): 46.7 ± 2.5%

Compound: Clc1ccc(C(c2ccc(Cl)cc2)C(Cl)Cl)cc1 [4,4-DDD]
chemical recovery into PDMS ([2]; equilibration time (d): 1): 1.61 ± 0.67% | chemical recovery into PDMS ([2]; equilibration time (d): 3): 1.42 ± 0.086% | chemical recovery into PDMS ([2]; equilibration time (d): 6): 1.39 ± 0.11%

Compound: O=C1C2CC3C1C1(Cl)C(Cl)C4(Cl)C2C3C1(Cl)C4(Cl)Cl (stereo not given) [Endrinketone]
chemical recovery into PDMS ([2]; equilibration time (d): 1): 75.4 ± 13% | chemical recovery into PDMS ([2]; equilibration time (d): 3): 90.3 ± 7% | chemical recovery into PDMS ([2]; equilibration time (d): 6): 87.5 ± 2.9%

Compound: CCN(CCCCOC(=O)c1ccc(OC)c(OC)c1)C(C)Cc1ccc(OC)cc1 (stereo not given) [Mebeverine]
chemical recovery [1, 6]: 38.1 ± 4.5% | chemical recovery [1, 7]: 69.6 ± 4.1% | chemical recovery by SPE of plasma ([3]; equilibration time (d): 1): 0.287 ± 0.15% | chemical recovery by SPE of plasma ([3]; equilibration time (d): 3): 0.295 ± 0.096% | chemical recovery by SPE of plasma ([3]; equilibration time (d): 6): 0.145 ± 0.0059%

Compound: Cc1cccc(Nc2ccccc2C(=O)O)c1C [Mefenamic acid]
chemical recovery [1, 4]: 60.9 ± 5.4% | chemical recovery [1, 5]: 45 ± 7.8% | chemical recovery [1, 6]: 15.7 ± 2.9% | chemical recovery [1, 7]: 54.2 ± 2.1% | chemical recovery by SPE of plasma ([3]; equilibration time (d): 1): 14.9 ± 5% | chemical recovery by SPE of plasma ([3]; equilibration time (d): 3): 16.4 ± 0.37% | chemical recovery by SPE of plasma ([3]; equilibration time (d): 6): 14.5 ± 3%

Compound: Cc1cccc(C(=O)O)c1N(Cn1cccn1)C(=O)C(=O)O [Metazachlor BH479-12]
chemical recovery [1, 6]: 37.9 ± 3.8% | chemical recovery by SPE of plasma ([3]; equilibration time (d): 1): 42 ± 6% | chemical recovery by SPE of plasma ([3]; equilibration time (d): 3): 49.95 ± 0.36% | chemical recovery by SPE of plasma ([3]; equilibration time (d): 6): 46.4 ± 4.8%

Compound: c1ccc2sc(SNC3CCCCC3)nc2c1 [N-Cyclohexyl-2-benzothiazole-sulfenamide]
chemical recovery [1, 6]: 44.1 ± 3.7% | chemical recovery by SPE of plasma ([3]; equilibration time (d): 1): 42.3 ± 7.4% | chemical recovery by SPE of plasma ([3]; equilibration time (d): 3): 43.6 ± 3.3% | chemical recovery by SPE of plasma ([3]; equilibration time (d): 6): 42.3 ± 4.2%

Compound: COc1cc(OC)nc(NC(=O)NS(=O)(=O)c2ncccc2C(=O)N(C)C)n1 [Nicosulfuron]
chemical recovery [1, 5]: 44.7 ± 3.3% | chemical recovery [1, 6]: 49.3 ± 3.4% | chemical recovery [1, 7]: 64.3 ± 2.2% | chemical recovery by SPE of plasma ([3]; equilibration time (d): 1): 51.6 ± 5.2% | chemical recovery by SPE of plasma ([3]; equilibration time (d): 3): 56 ± 2.5% | chemical recovery by SPE of plasma ([3]; equilibration time (d): 6): 50.3 ± 3.3%

Compound: Clc1ccc(-c2ccc(Cl)cc2Cl)cc1 [PCB28]
chemical recovery [1, 5]: 5.86 ± 1.6% | chemical recovery [1, 6]: 20.3 ± 4.4% | chemical recovery by SPE of plasma ([3]; equilibration time (d): 1): 1.11 ± 1% | chemical recovery by SPE of plasma ([3]; equilibration time (d): 3): 1.62 ± 0.27% | chemical recovery by SPE of plasma ([3]; equilibration time (d): 6): 1.51 ± 0.26%

Compound: Clc1ccc(Cl)c(-c2cc(Cl)ccc2Cl)c1 [PCB52]
chemical recovery [1, 4]: 48.5 ± 8.4% | chemical recovery [1, 5]: 3.67 ± 0.85% | chemical recovery [1, 6]: 16.2 ± 3.2% | chemical recovery by SPE of plasma ([3]; equilibration time (d): 1): 1.19 ± 0.83% | chemical recovery by SPE of plasma ([3]; equilibration time (d): 3): 1.25 ± 0.28% | chemical recovery by SPE of plasma ([3]; equilibration time (d): 6): 1.09 ± 0.3%

Compound: O=C(O)C(F)(F)C(F)(F)C(F)(F)C(F)(F)C(F)(F)C(F)(F)C(F)(F)C(F)(F)C(F)(F)F [Perfluorodecanoic acid]
chemical recovery [1, 5]: 20.4 ± 10% | chemical recovery by SPE of plasma ([3]; equilibration time (d): 1): 25.3 ± 4.6% | chemical recovery by SPE of plasma ([3]; equilibration time (d): 3): 24.1 ± 4.5%

Compound: CC(=O)c1cc2c(cc1C)C(C)(C)C(C)C2(C)C (stereo not given) [Phantolide]
chemical recovery into PDMS ([2]; equilibration time (d): 1): 32.9 ± 0.97% | chemical recovery into PDMS ([2]; equilibration time (d): 3): 37.4 ± 3.8% | chemical recovery into PDMS ([2]; equilibration time (d): 6): 34.1 ± 3.6%
